Test results as given in patent US8017594B2, “Agent against psychosocial stresses” (Yamasa Corporation, priority 2006, dated 2011).

System: isolation-reared male ddy mice
Experiment: Aggressive behavior of isolation-reared (sociopsychological stress) mice
Format: in vivo
Conditions: six weeks after initiation of isolation-rearing, two mice in same cage for 20 minutes, vs solvent
Experimental: Conceivably, this phenomenon is attributed to the fact that rearing of experimental animals under conditions where social environmental change or social stimuli are absent imposes a kind of sociopsychological stress on the animals (“Mechanism of Sleep,” pp. 52-73 “Stress and Sleep,” Asakura Publishing Co., Ltd. (1997)). In Example 1, anti-stress effects of uridine and GABA (i.e., control) were evaluated through use of this phenomenon. Specifically, isolation-rearing of male ddy mice was initiated at four weeks old, to thereby impose sociopsychological stress (stress caused by isolation-rearing) on the mice. Thus, animal models for evaluation were prepared.
On the basis of this report, the following evaluation was carried out. Specifically, six weeks after initiation of isolation-rearing, two mice were placed in the same cage for 20 minutes, and the time during which aggressive behavior was observed was measured. The effect of uridine or GABA on prolongation of aggressive behavior was evaluated.
A test compound was suspended or dissolved in 0.5% aqueous carboxymethylcellulose solution, and the resultant suspension or solution was orally administered once a day, six days a week, until the end of the experiment.
Mice were divided into four groups. Mice of one group were group-reared and received a solvent. Mice of the other three groups were isolation-reared and received a solvent (100 mg/kg/day), uridine (100 mg/kg/day), and GABA (100 mg/kg/day), respectively. Observation of aggressive behavior was carried out in […] of mice in each group (n=9).
The experiment of Example 1 was repeated, except that the dose of uridine was changed to 10 mg/kg/day, and uridylic acid was administered in place of GABA at a dose of 1 g/kg/day.

[1] = 100 mg/kg/day oral, once a day six days a week

SMILES: O=c1ccn([C@@H]2O[C@H](CO)[C@@H](O)[C@H]2O)c(=O)[nH]1 [uridine]
- time during which aggressive behavior was observed (10 mg/kg/day oral (low-dose)): significantly reduced
- time during which aggressive behavior was observed [1]: significantly reduced

SMILES: NCCCC(=O)O [GABA, γ-aminobutyric acid, reference compound]
- time during which aggressive behavior was observed [1]: significantly reduced

SMILES: O=c1ccn([C@@H]2O[C@H](COP(=O)(O)O)[C@@H](O)[C@H]2O)c(=O)[nH]1 [uridylic acid]
- time during which aggressive behavior was observed (1 g/kg/day oral): significantly reduced
